{
  "source": "ChEMBL document CHEMBL1212695",
  "about": "“An allosteric potentiator of M4 mAChR modulates hippocampal synaptic transmission” (Nat Chem Biol, 2008)",
  "key": {"[1]": {"target": "T1, Muscarinic acetylcholine receptor M4 (Rattus norvegicus) (UniProt P08485)", "T1 sequence (whole entry)": "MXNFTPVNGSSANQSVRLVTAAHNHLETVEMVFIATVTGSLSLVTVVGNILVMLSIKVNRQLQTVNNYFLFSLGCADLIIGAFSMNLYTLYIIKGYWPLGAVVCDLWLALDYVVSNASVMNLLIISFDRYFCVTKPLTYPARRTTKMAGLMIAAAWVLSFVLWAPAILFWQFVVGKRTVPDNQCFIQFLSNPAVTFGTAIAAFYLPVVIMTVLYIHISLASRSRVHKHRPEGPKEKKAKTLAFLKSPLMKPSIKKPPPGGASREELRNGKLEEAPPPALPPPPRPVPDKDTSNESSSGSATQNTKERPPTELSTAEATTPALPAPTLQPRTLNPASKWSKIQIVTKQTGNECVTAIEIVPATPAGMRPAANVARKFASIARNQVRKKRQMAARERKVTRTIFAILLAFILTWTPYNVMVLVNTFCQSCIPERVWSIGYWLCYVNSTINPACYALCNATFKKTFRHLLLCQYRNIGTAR", "test": "(§1) Allosteric activation of rat recombinant muscarinic M4 receptor expressed in CHO cells assessed as potentiation of 10 uM acetylcholine-induced calcium mobilization after 1 hr by fluorescence assay", "assay_type": "functional, cell-based"}, "[2]": {"target": "T1, Muscarinic acetylcholine receptor M4 (Rattus norvegicus)", "test": "Agonist activity at muscarinic M4 receptor in Sprague-Dawley rat hippocampal CA1 pyramidal neuron assessed as reduction in excitatory postsynaptic current at 5 uM by whole-cell electrophysiology in presence of carbachol relative to control", "assay_type": "functional, tissue-based", "details": "Hippocampus"}, "[3]": {"target": "T2, Muscarinic acetylcholine receptor M2 (Rattus norvegicus) (UniProt P10980)", "T2 sequence (whole entry)": "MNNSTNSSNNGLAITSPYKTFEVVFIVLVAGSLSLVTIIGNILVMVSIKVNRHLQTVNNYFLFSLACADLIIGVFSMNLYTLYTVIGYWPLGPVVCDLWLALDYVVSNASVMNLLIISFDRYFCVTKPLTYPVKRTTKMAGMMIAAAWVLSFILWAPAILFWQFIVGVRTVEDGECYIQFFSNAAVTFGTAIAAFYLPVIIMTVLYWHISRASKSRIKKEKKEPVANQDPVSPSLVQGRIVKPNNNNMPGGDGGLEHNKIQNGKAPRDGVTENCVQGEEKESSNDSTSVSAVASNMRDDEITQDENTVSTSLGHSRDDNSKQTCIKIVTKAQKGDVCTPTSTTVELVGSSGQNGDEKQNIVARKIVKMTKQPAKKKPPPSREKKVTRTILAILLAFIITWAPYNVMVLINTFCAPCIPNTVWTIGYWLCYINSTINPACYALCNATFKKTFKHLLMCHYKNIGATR", "test": "Allosteric activation of rat recombinant muscarinic M2 receptor expressed in CHO cells assessed as potentiation of acetylcholine-induced calcium mobilization at 10 uM after 1 hr by fluorescence assay", "assay_type": "functional, cell-based"}, "[4]": {"target": "T3, Muscarinic acetylcholine receptor M1 (Rattus norvegicus) (UniProt P08482)", "T3 sequence (whole entry)": "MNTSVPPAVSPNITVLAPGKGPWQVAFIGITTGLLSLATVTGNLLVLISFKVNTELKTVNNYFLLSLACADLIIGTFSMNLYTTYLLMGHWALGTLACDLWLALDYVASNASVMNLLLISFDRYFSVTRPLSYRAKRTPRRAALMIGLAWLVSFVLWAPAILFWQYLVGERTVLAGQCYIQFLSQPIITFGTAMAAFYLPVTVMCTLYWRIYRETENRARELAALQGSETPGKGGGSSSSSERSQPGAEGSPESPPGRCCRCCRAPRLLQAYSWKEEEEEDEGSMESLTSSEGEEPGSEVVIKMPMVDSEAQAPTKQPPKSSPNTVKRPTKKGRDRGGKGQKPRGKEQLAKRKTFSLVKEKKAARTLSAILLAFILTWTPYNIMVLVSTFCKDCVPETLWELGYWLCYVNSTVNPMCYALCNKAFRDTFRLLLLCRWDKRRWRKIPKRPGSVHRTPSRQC", "test": "Allosteric activation of rat recombinant muscarinic M1 receptor expressed in CHO cells assessed as potentiation of acetylcholine-induced calcium mobilization at 10 uM after 1 hr by fluorescence assay", "assay_type": "functional, cell-based"}, "[5]": {"target": "T1, Muscarinic acetylcholine receptor M4 (Rattus norvegicus)", "test": "Allosteric activation of rat recombinant muscarinic M4 receptor expressed in CHO cells assessed as […] in acetylcholine EC50 for induction of calcium mobilization at 10 uM after 1 hr by fluorescence assay", "assay_type": "functional, cell-based"}, "[6]": {"target": "T4, Muscarinic acetylcholine receptor M5 (Rattus norvegicus) (UniProt P08911)", "T4 sequence (whole entry)": "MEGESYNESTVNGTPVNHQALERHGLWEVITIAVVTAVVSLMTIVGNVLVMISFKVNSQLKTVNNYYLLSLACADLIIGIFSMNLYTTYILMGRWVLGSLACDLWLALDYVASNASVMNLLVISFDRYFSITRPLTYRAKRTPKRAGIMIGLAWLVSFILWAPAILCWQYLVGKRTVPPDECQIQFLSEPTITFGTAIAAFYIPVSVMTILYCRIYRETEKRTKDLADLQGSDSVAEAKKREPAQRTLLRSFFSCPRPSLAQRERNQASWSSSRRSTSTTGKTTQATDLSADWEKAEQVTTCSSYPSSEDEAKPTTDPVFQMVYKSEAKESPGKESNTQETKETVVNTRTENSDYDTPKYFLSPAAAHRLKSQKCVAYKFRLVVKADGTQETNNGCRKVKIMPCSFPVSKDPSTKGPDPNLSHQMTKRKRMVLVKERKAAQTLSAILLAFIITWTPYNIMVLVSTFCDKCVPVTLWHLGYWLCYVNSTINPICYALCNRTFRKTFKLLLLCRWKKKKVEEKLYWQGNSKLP", "test": "Allosteric activation of rat recombinant muscarinic M5 receptor expressed in CHO cells assessed as potentiation of acetylcholine-induced calcium mobilization at 10 uM after 1 hr by fluorescence assay", "assay_type": "functional, cell-based"}, "[7]": {"target": "Muscarinic acetylcholine receptor M3 (Rattus norvegicus) (UniProt P08483)", "sequence (P08483 whole entry, looked up)": "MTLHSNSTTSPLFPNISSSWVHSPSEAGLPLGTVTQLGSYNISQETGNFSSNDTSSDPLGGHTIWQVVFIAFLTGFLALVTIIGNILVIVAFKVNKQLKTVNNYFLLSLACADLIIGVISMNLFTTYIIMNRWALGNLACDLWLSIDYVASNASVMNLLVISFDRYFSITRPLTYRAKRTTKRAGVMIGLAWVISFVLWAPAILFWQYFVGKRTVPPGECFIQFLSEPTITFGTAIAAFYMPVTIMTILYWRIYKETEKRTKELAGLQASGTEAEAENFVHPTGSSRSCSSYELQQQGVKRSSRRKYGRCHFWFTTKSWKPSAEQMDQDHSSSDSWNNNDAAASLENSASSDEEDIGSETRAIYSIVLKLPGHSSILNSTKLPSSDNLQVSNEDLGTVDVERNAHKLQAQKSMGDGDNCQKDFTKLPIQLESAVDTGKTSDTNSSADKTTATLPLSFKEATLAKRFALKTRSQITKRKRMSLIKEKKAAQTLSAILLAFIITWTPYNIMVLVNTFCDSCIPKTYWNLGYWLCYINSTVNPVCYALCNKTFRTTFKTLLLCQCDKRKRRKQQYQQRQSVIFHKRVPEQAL", "test": "Allosteric activation of rat recombinant muscarinic M3 receptor expressed in CHO cells assessed as potentiation of acetylcholine-induced calcium mobilization at 10 uM after 1 hr by fluorescence assay", "assay_type": "functional, cell-based"}, "[8]": {"target": "T5, Muscarinic acetylcholine receptor M4 (Rattus norvegicus, UniProt P08485)", "T5 sequence (P08485 whole entry)": "T1 sequence (whole entry)", "test": "as §1", "assay_type": "functional, cell-based"}, "[9]": {"target": "T5, Muscarinic acetylcholine receptor M4", "test": "Allosteric activation of rat recombinant muscarinic M4 receptor expressed in CHO cells assessed as potentiation of 15 nM acetylcholine-induced calcium mobilization after 1 hr by fluorescence assay", "assay_type": "functional, cell-based"}, "[10]": {"target": "T1, Muscarinic acetylcholine receptor M4 (Rattus norvegicus)", "test": "Allosteric activation of rat recombinant muscarinic M4 receptor expressed in CHO cells assessed as induction of calcium mobilization after 1 hr by fluorescence assay", "assay_type": "functional, cell-based"}},
  "note": "Calls of active or inactive are those of the source. The calls are words filed in the database; no cut-off is given here.",
  "data": [
    {"smiles": "Cc1cc(C)c2c(N)c(C(=O)N[C@H](C)c3ccccc3)sc2n1", "values": [
      {"measurement": "Activity", "setting": "[1]", "result": "Active"}
    ]},
    {"smiles": "Cc1cc(C)c2c(N)c(C(=O)N[C@@H](C)c3ccccc3)sc2n1", "values": [
      {"measurement": "Activity", "setting": "[1]", "result": "inactive"},
      {"measurement": "inhibition", "setting": "[2]", "result": 61.6, "unit": "%"}
    ]},
    {"smiles": "Cc1cc(C)c2c(N)c(C(=O)NC(C)(C)C)sc2n1", "values": [
      {"measurement": "Activity", "setting": "[1]", "result": "Active"}
    ]},
    {"smiles": "Cc1cc(C)c2c(N)c(C(=O)NCc3ccco3)sc2n1", "values": [
      {"measurement": "Activity", "setting": "[3]", "result": "inactive"},
      {"measurement": "Activity", "setting": "[4]", "result": "inactive"},
      {"measurement": "fold change (FC)", "setting": "[5]", "result": 21},
      {"measurement": "Activity", "setting": "[6]", "result": "inactive"},
      {"measurement": "Activity", "setting": "[7]", "result": "inactive"}
    ]},
    {"smiles": "Cc1cc(C)c2c(N)c(C(=O)NCC(C)C)sc2n1", "values": [
      {"measurement": "Activity", "setting": "[1]", "result": "Active"}
    ]},
    {"smiles": "Cc1cc(C)c2c(N)c(C(=O)NCc3ccc(C(F)(F)F)cc3)sc2n1", "values": [
      {"measurement": "fold change (FC)", "setting": "[5]", "result": 37},
      {"measurement": "EC50", "setting": "[8]", "result": 0.715, "unit": "µM"}
    ]},
    {"smiles": "Cc1cc(C)c2c(N)c(C(=O)NCc3ccccc3)sc2n1", "values": [
      {"measurement": "Activity", "setting": "[3]", "result": "inactive"},
      {"measurement": "Activity", "setting": "[4]", "result": "inactive"},
      {"measurement": "EC50", "setting": "[9]", "result": 1.3, "unit": "µM"},
      {"measurement": "Activity", "setting": "[6]", "result": "inactive"},
      {"measurement": "Activity", "setting": "[7]", "result": "inactive"}
    ]},
    {"smiles": "Cc1cc(C)c2c(N)c(C(=O)NC3CC3)sc2n1", "values": [
      {"measurement": "Activity", "setting": "[1]", "result": "Active"}
    ]},
    {"smiles": "Cc1cc(C)c2c(N)c(C(=O)NC(C)C)sc2n1", "values": [
      {"measurement": "Activity", "setting": "[3]", "result": "inactive"},
      {"measurement": "Activity", "setting": "[4]", "result": "inactive"},
      {"measurement": "EC50", "setting": "[9]", "result": 6, "unit": "µM"},
      {"measurement": "Activity", "setting": "[6]", "result": "inactive"},
      {"measurement": "Activity", "setting": "[7]", "result": "inactive"}
    ]},
    {"smiles": "CCNC(=O)c1sc2nc(C)cc(C)c2c1N", "values": [
      {"measurement": "Activity", "setting": "[1]", "result": "Active"}
    ]},
    {"smiles": "CCCNC(=O)c1sc2nc(C)cc(C)c2c1N", "values": [
      {"measurement": "Activity", "setting": "[1]", "result": "Active"}
    ]},
    {"smiles": "CC(=O)OCC[N+](C)(C)C", "values": [
      {"measurement": "EC20", "setting": "[10]", "result": 0.015, "unit": "µM"},
      {"measurement": "EC100", "setting": "[10]", "result": 10, "unit": "µM"}
    ]},
    {"smiles": "Cc1cc(C)c2c(N)c(C(=O)NCc3ccc(F)cc3)sc2n1", "values": [
      {"measurement": "fold change (FC)", "setting": "[5]", "result": 30},
      {"measurement": "EC50", "setting": "[8]", "result": 0.3, "unit": "µM"}
    ]}
  ]
}
